Results from patent US7319152B2 (Wyeth, priority 2005, dated 2008).
Several values for one entry are separate records, joined by “and”; a condition that tells them apart may be missing. Equal values may be shown once.

Assays:
[1] = system: rat uterine decidualization; assay: Rat decidualization assay; format: in vivo; details: for Estimated average EC50 for uterine wet weight: ovariectomized Sprague-Dawley rats, s.c., average of dose-response curves
Protocol: The animals were treated once daily for seven days. […] In all studies, a control group receiving vehicle was included. […] The contralateral horn was not scratched and served as an unstimulated control. Approximately 24 hoursfollowing the final treatment, rats were sacrificed by CO2 asphyxiation and body weight measured. Uteri were removed and trimmed of fat. Decidualized (D-horn) and control (C-horn) uterine horns were weighed separately.
Body weight: Mean total animal body weight (default-kg)
D-horn: Wet weight of decidualized uterine horn (default-kg)
C-horn: Wet weight of control uterine horn (default-kg)
Decidual response: [(D−C)/C]×100%

PR = target: T1, PR (Homo sapiens, UniProt P06401); assay: T47D cell alkaline phosphatase assay; format: cell-based; details: for IC50: read-out: Alk. Phos. IC50
T1 construct: alkaline phosphatase activity in T47D cells; endogenous in cells; host or cells: T47D cells
T1 sequence (P06401 1-933): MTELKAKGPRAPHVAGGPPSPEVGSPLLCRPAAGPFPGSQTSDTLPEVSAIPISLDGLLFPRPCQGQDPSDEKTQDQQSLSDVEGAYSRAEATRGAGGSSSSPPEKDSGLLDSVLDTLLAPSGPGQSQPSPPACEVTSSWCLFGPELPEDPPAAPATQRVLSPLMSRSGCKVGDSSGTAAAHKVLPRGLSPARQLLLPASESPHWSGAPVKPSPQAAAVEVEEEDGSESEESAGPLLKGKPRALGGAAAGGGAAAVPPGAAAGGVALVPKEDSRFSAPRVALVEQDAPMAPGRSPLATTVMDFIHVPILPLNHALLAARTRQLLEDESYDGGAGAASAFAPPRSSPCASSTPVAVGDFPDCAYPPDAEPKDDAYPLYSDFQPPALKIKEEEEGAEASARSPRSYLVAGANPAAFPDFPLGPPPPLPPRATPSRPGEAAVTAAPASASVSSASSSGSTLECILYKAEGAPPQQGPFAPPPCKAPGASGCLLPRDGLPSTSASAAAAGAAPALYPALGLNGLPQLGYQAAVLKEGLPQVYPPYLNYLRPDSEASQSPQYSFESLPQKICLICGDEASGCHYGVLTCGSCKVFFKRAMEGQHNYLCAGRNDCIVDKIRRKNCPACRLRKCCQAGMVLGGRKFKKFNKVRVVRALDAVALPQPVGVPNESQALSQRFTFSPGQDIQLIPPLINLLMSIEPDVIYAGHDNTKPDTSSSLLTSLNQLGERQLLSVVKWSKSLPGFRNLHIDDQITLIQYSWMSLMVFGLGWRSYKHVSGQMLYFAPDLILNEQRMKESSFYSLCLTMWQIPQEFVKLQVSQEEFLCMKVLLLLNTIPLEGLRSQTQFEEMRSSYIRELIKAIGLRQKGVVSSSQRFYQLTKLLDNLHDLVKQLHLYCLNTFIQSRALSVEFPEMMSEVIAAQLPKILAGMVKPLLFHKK
Protocol: (a) Purpose: To identify progestins or antiprogestins by determining a compound's effect on alkaline phosphatase activity in T47D cells. […] Cell Culture and Treatment • Frozen T47D cells were thawed in a 37° C. water bath and diluted to 280,000 cells/ml in culture medium. To each well in a 96-well plate (Falcon, Becton Dickinson Labware), 180 ? L of diluted cell suspension was added. Twenty ? L of reference or test compounds diluted in the culture medium was then added to each well. […] The cells were incubated at 37° C. in a 5% CO2humidified atmosphere for 24 hours. • Note: For high throughput screening, one concentration of each compound was tested at 0.3 mg/ml. […] Alkaline Phosphatase Enzyme Assay • At the end of treatment, the medium was removed from the plate. Fifty ? L of assay buffer I was added to each well. The plates were shaken in a titer plate shaker for 15 minutes. Then 150 ? L of assay buffer II was added to each well. […] Square root-transformed data were used for analysis of variance and nonlinear dose response curve fitting for both agonist and antagonist modes. Huber weighting was used to downweight the effects of outliers. EC50 or IC50 values were calculated from the retransformed values. JMP software (SAS Institute, Inc.) was used for both one-way analysis of variance and non-linear dose response analyses in both single dose and dose response studies.

Row | IC50 (PR) [nM] | SMILES | further results
1 | – | C#C[C@]1(O)CC[C@H]2[C@@H]3CCC4=CC(=O)CC[C@@H]4[C@H]3C(=C)C[C@@]21CC [3-Ketodesogestrel] | Estimated average EC50 for uterine wet weight [1]: 0.10 mg/kg, s.c.
2 | – | Cn1c(C#N)ccc1-c1ccc2c(c1)C(C)(C)CC2=O [Example 3, 5-(3,3-dimethyl-1-oxo-2,3-dihydro-1H-inden-5-yl)-1-methyl-1H-pyrrole-2-carbonitrile] | EC50 (PR; T47D cells, agonist mode, read-out: Alk. Phos. EC50): 10 nM
3 | 115 | CCC(=O)c1ccc(-c2ccc(C#N)n2C)cc1 [Example 9, 1-methyl-5-(4-propionylphenyl)-1H-pyrrole-2-carbonitrile] | –
4 | 266 | Cn1c(C#N)ccc1-c1ccc(C(=O)c2cccs2)cc1 [Example 10, 1-methyl-5-[4-(thien-2-ylcarbonyl)phenyl]-1H-pyrrole-2-carbonitrile] | –
5 | 300 | Cn1c(C#N)ccc1-c1ccc(C(=O)c2ccccc2)cc1 [Example 11, 5-(4-benzoylphenyl)-1-methyl-1H-pyrrole-2-carbonitrile] | –
6 | 27.5 | Cn1c(C#N)ccc1-c1ccc2c(c1)CCCC2=O [Example 13, 1-methyl-5-(5-oxo-5,6,7,8-tetrahydronaphthalen-2-yl)-1H-pyrrole-2-carbonitrile] | –
7 | 200 | CC1(C)CC(=O)c2ccc(-c3ccc(Cl)cc3)cc21 [Example 21, 5-(4-chlorophenyl)-3,3-dimethylindan-1-one] | –
8 | 877 | Cc1ccc(-c2ccc3c(c2)C(C)(C)CC3=O)cc1 [Example 26, 3,3-dimethyl-5-(4-methylphenyl)indan-1-one] | –
9 | 66.3 | CC1(C)CC(=O)c2ccc(-c3cccc(Cl)c3)cc21 [Example 28, 5-(3-chlorophenyl)-3,3-dimethylindan-1-one] | –
10 | 225 | Cc1cccc(-c2ccc3c(c2)C(C)(C)CC3=O)c1 [Example 29, 3,3-dimethyl-5-(3-methylphenyl)indan-1-one] | –
11 | 737 | CC1(C)CC(=O)c2ccc(-c3ccccc3Cl)cc21 [Example 32, 5-(2-chlorophenyl)-3,3-dimethylindan-1-one] | –
12 | 632 | CC1(C)CC(=O)c2ccc(-c3cc(Cl)ccc3Cl)cc21 [Example 35, 5-(2,5-dichlorophenyl)-3,3-dimethylindan-1-one] | –
13 | 349 | CC1(C)CC(=O)c2ccc(-c3ccc(Cl)cc3Cl)cc21 [Example 36, 5-(2,4-dichlorophenyl)-3,3-dimethylindan-1-one] | –
14 | 300 | CC1(C)CC(=O)c2ccc(-c3ccccc3)cc21 [Example 37, 3,3-dimethyl-5-phenylindan-1-one] | –
15 | 100 | CC1(C)CC(=O)c2ccc(-c3ccc(F)c(Cl)c3)cc21 [Example 38, 5-(3-chloro-4-fluorophenyl)-3,3-dimethylindan-1-one] | –
16 | – | C#C[C@]1(O)CC[C@H]2[C@@H]3CCC4=CC(=O)CC[C@@H]4[C@H]3CC[C@@]21CC [Levonorgestrel] | Estimated average EC50 for uterine wet weight [1]: 0.10 mg/kg, s.c.
17 | – | CC#C[C@]1(O)CC[C@H]2[C@@H]3CCC4=CC(=O)CCC4=C3[C@@H](c3ccc(N(C)C)cc3)C[C@@]21C [RU486] | Estimated IC50 for uterine weight ([1]; ovariectomized rats, p.o., with EC50 dose of progesterone (5.6 mg/kg), individual studies): 0.21 mg/kg, p.o. and 0.14 mg/kg, p.o.
